From US10875874B2, “Ginkgolide B derivative and preparation method and use thereof” (Chengdu Baiyu Ginkgolide Pharmaceuticals Co., Ltd., priority 2015, dated 2020)
Marks after values point to notes of the source that are not given here.

Experiments:
Assay type in all cases: in vivo, rat
[1] = tested on: spontaneously hypertensive rats (SHR); assay: Caudal artery systolic pressure of spontaneously hypertensive rats, 8 weeks of continuous medication; conditions: captopril 27 mg/kg intragastric continuous, x ± s, n = 8
Experimental: (§1) 2.1 Grouping and administration of animals: 112 SHR rats (the female and male SHR rats are half and half, and the female rats are not pregnant) with the body weight of 200-250 g are taken, the rats are enabled to adapt to a laboratory for a period of 5 d, blood pressure is measured once at a day to enable the rats to adapt to the environment and detect stimulation. Then, weighing and numbering are carried out, and the SHR rats are equally divided into 14 groups randomly (each group comprises 8 rats), i.e., an SHR rat model control group, a positive control group (captopril, 27 mg/kg), a BZ large-dose group (120 mg/kg/d), a BZ small-dose group (60 mg/kg/d), a BA large-dose group (120 mg/kg/d), a BA small-dose group (60 mg/kg/d), a BL large-dose group (120 mg/kg/d), a BL small-dose group (60 mg/kg/d), a BM large-dose group (120 mg/kg/d), a BM small-dose group (60 mg/kg/d), a BD large-dose group (120 mg/kg/d), a BD small-dose group (60 mg/kg/d), a GB large-dose group (120 mg/kg/d) and a GB small-dose group (60 mg/kg/d). In addition, 8 healthy Wistar rats are taken as a normal control group. Intragastric administration is performed on the rats of each drug group separately according to the above-mentioned doses by 1 mL/100 g body weight, intragastric administration is performed on the rats of the normal control group and the rats of the SHR rat model control group with an equal volume of distilled water, and administration is performed continuously for 8 weeks.
(§2) 2.3 Blood pressure measuring: caudal artery systolic pressure of rats is measured with a Bp-6 noninvasive blood pressure measuring system. Under the condition that the rats are calm, the systolic pressure is continuously measured for 3 times, and the average value of the measured systolic pressure is taken as a pressure measuring result. Observation indexes: (1) single-administration pressure lowering effect: blood pressure of the rats is measured before administration and blood pressure conditions are measured 30 min, 60 min, 90 min and 120 min after first administration; and (2) continuous-administration pressure lowering condition: blood pressure is separately measured 30 min after administration at 1 d, 7 d, 13 d, 19 d, 25 d, 35 d, 49 d and 56 d, the blood pressure is repeatedly measured for 3 times at a day, and the average value of obtained values is taken as a final blood pressure value.

[2] = Weekly food intake of SHR rats; conditions: captopril 27 mg/kg intragastric
Experimental: as §1
(§3) 2.2 General state: during observation, conditions such as mind, water drinking, food intake, bowel movement, hair color, body weight and range of motion of rats are observed. Irritable degrees of the rats are divided into III levels: a level I means that the rats are free of obvious response when necks of the rats are seized; a level II means that the rats scream and startle when the necks of the rats are seized; and a level III means that the rats bite or rats of same cages frequently fight when the necks of the rats are seized.
(§4) 3.1 Influence on general state of spontaneously hypertensive rats: the rats of the normal control group are normal in food intake, drinking and motion conditions, sensitive in response, healthy and glossy in hair color, good in mental state and free of any unusual response; the rats of the SHR model group gradually present that back hair is fluffy, clustered and dim, the appetite is reduced, the body weight is reduced, the mind is dispirited and irritable, and the rats are prone to the behaviors of intense resisting, attacking and so on during administration and blood pressure detection, and irritable degrees are mostly changed to a level II and a level III from a level I; and after single administration of ginkgolide B and derivatives thereof, behavioral general state observations of rats of each group are free of obvious difference from those of the model control group.

[3] = tested on: spontaneously hypertensive rats (SHR); assay: Caudal artery systolic pressure of spontaneously hypertensive rats, single administration; conditions: captopril 27 mg/kg intragastric single administration, x ± s, n = 8
Experimental: as §1, §2

[4] = Weekly body weight of SHR rats; conditions: captopril 27 mg/kg intragastric
Experimental: as §1, §3, §4

In the case of `C[C@H](CS)C(=O)N1CCC[C@H]1C(=O)O` [Positive control, captopril, reference compound], the Systolic pressure ([1]; 1 d, 30 min after administration) is reported as 145.17 ± 6.42 mmHg, the Systolic pressure ([1]; 7 d, 30 min after administration) is reported as 142.05 ± 7.24 mmHg and the Systolic pressure ([1]; 13 d, 30 min after administration) is reported as 140.36 ± 9.20 mmHg. It also gave a Systolic pressure ([1]; 19 d, 30 min after administration) of 138.39 ± 7.26 mmHg, a Systolic pressure ([1]; 25 d, 30 min after administration) of 145.02 ± 7.30 mmHg and a Systolic pressure ([1]; 35 d, 30 min after administration) of 139.08 ± 6.72 mmHg. For the same compound, the Systolic pressure ([1]; 49 d, 30 min after administration) was 135.47 ± 8.47 mmHg, the Systolic pressure ([1]; 56 d, 30 min after administration) was 130.39 ± 4.65 mmHg and the Systolic pressure ([1]; before administration) was 161.24 ± 11.03 mmHg. For the same compound, the “Average dairy food intake” value ([2]; week 0) was 18.4 g/day, the “Average dairy food intake” value ([2]; week 1) was 20.0^▴ g/d and the “Average dairy food intake” value ([2]; week 2) was 19.1^▴ g/d. The “Average dairy food intake” value ([2]; week 3) was 19.5^▴ g/d, the “Average dairy food intake” value ([2]; week 4) was 19.9^▴ g/d and the “Average dairy food intake” value ([2]; week 5) was 21.4^▴▴ g/d. For the same compound, the “Average dairy food intake” value ([2]; week 6) was 23.8^▴▴ g/d, the “Average dairy food intake” value ([2]; week 7) was 24.6^▴▴ g/d and the “Average dairy food intake” value ([2]; week 8) was 26.3^▴▴ g/d. It also gave a Systolic pressure ([3]; 30 min) of 149.75 ± 8.09 mmHg, a Systolic pressure ([3]; 60 min) of 140.95 ± 9.50 mmHg and a Systolic pressure ([3]; 90 min) of 139.23 ± 6.04 mmHg. For the same compound, the Systolic pressure ([3]; 120 min) was 134.41 ± 8.31 mmHg, the Systolic pressure ([3]; before administration) was 161.24 ± 11.03 mmHg and the Body weight ([4]; week 0) was 230.5 g. For the same compound, the Body weight ([4]; week 1) was 235.1 g, the Body weight ([4]; week 2) was 245.4^▴ g and the Body weight ([4]; week 3) was 255.9^▴▴ g. For the same compound, the Body weight ([4]; week 4) was 260.5^▴▴ g, the Body weight ([4]; week 5) was 266.3^▴▴ g and the Body weight ([4]; week 6) was 271.0^▴▴ g. For the same compound, the Body weight ([4]; week 7) was 280.6^▴▴ g and the Body weight ([4]; week 8) was 290.7^▴▴ g.
